Data: PubChem BioAssay AID179 (DTP/NCI, 2004)
Active and inactive are the calls of the source.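 The calls were made as follows: active = compounds giving half or more protection of infected cells from virus-caused growth loss, again on retest; inactive = the rest.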

System: CEM cells HIV-1 protection, formazan growth assay
Assay: NCI AIDS Antiviral Assay
Conditions: for IC50: measured here: growth of uninfected CEM cells
Summary of the method: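 Steps: treat uninfected and HIV-1-infected human CEM cells at five drug levels; quantify growth by soluble formazan; retest any compound reaching 50% protection; classify actives from the retest.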

| Compound | EC50 [µM] | IC50 [µM] | outcome |
| --- | --- | --- | --- |
| Cc1ccc(-c2cn3c(nc4ccccc43)c(-c3ccccc3)n2)cc1 | > 200 | 174 | – |
| COP1(=O)CC2C(Cl)(Cl)C2(C)C1 (stereo not drawn) | – | – | inactive |
| CC1=CC(=O)Nc2ccccc2S1 | > 234 | 85.1 | – |
| CC(C)(C)OC[C@H](O)CC#N | > 200 | > 200 | – |
| O=C(NCCN1CCOCC1)c1ccc(I)cc1 | > 200 | > 200 | – |
| CC(C)(C)C(=O)/C=C/c1ccccc1Cl | > 23.4 | > 23.4 | – |
| CC1OC(OC2C(O)COC(OC3C(C)OC(OC4C(OC(=O)[C@]56CCC(C)(C)C[C@@H]5C5=CCC7[C@@]8(C)C[C@H](O)[C@H](OC9OC(CO)C(O)C(OC%10OC(CO)C(O)C(O)C%10O)C9O)[C@@](C)(CO)[C@@H]8CC[C@@]7(C)[C@]5(C)CC6)OCC(O)C4O)C(O)C3OC3OCC(O)C(O)C3O)C2O)C(O)C(O)C1O (stereo partly drawn) | > 17 | > 17 | – |
| COc1ccc(C(=O)C(CN2CCOCC2)CN2CCOCC2)cc1 | > 200 | 1.32 | – |
| COC(=O)[C@]1(C)CCC[C@]2(C)[C@H]3CC4OO[C@@]3(CC[C@H]21)[C@H]1O[C@@]41C(C)C | – | – | inactive |
| COC1/C=C\OC2(C)Oc3c(C)c(O)c4c(O)c(c(/C=N\OC(C(=O)O)C(C)C)c(O)c4c3C2=O)NC(=O)/C(C)=C\C=C/C(C)C(O)C(C)C(O)C(C)C(OC(C)=O)C1C (stereo not drawn) | > 100 | 40.7 | – |
| COc1ccc(/C=N/Nc2nc(-c3cc4oc(=O)n(C)c4cc3Cl)cs2)cc1OC | > 11.7 | > 11.7 | – |
| CC1=N/C(=C\c2ccco2)C(=O)O1 | > 537 | > 537 | – |
| COc1cccc(CN2CCCN(/N=C/c3c4c(O)c5c(O)c(C)c6c(c5c3O)C(=O)C(C)(O/C=C/C(OC)C(C)C(OC(C)=O)C(C)C(O)C(C)C(O)C(C)/C=C/C=C(/C)C(=O)N4)O6)CC2)c1 (stereo not drawn) | > 200 | 5.01 | – |
| Cn1c(=O)n2n(c1=O)C1(CCO)CCC2(CCO)CC1 | > 331 | > 331 | – |
| CCOC(=O)C(CC1COc2ccccc2O1)C(=O)OCC (stereo not drawn) | – | – | inactive |
| CC(=O)O[C@H]1CN(S(=O)(=O)c2ccc(C)cc2)C[C@@H]1C1CCCCC1 | > 200 | 28.8 | – |
| COc1ccc(-c2nc3c(=O)n(C)c(=O)nc-3n(C)n2)cc1OC | > 20 | 0.447 | – |
| O=C(O)C1CCC(C(=O)O)SS1 (stereo not drawn) | > 1200 | > 1200 | – |
| O=C(N/C(=C\c1ccccc1[N+](=O)[O-])c1nc2ccccc2[nH]1)c1ccccc1 | > 49 | > 49 | – |
| NC(=O)C(=CNC(=S)Nc1ccccc1)C(N)=O | > 200 | > 200 | – |
| CCOC(=O)C(C(=O)OCC)C(=S)NC1OC(COC(C)=O)C(OC(C)=O)C(OC(C)=O)C1OC(C)=O (stereo not drawn) | > 200 | > 200 | – |
| Cc1ccc(/S(Cc2ccccc2)=N\S(=O)(=O)c2ccc(C)cc2)cc1 (stereo not drawn) | > 67.6 | > 67.6 | – |

| Compound | EC50 [µM] | IC50 [µM] | outcome |
| --- | --- | --- | --- |
| CN(C)/N=C(/SS/C(=N/N(C)C)C(F)(F)F)C(F)(F)F | – | – | inactive |
| Cn1cnc([N+](=O)[O-])c1Sc1nccc(=O)[nH]1 | > 977 | > 200 | – |
| Cc1ccc2c(c1)C(=O)C1(Cc3ccccc3C1=O)C2 (stereo not drawn) | > 200 | > 200 | – |
| O=S(=O)(c1ccc(F)cc1)c1ccc(F)cc1 | > 200 | > 200 | – |
| CCOC(=O)C1C(c2ccc3c(c2)OCO3)c2c([nH][nH]c2=O)CC1(O)OCC (stereo not drawn) | > 200 | > 200 | – |
| CCN1CCC(O)(/C=C/c2ccccc2)C(C(=O)/C=C/c2ccccc2)C1 (stereo not drawn) | – | – | inactive |
| CCOc1ccc(NC(=O)CC2SC(N)=NC2=O)cc1 (stereo not drawn) | > 447 | > 447 | – |
| O=c1nc2c(c(-c3ccc(F)cc3)[nH]1)COC/C2=C\c1ccc(F)cc1 | – | – | inactive |
| CC(=O)OCC1OC(OCCCOP(=S)(OCCC#N)OCC2OC(n3ccc(N)nc3=O)C(OC(=O)c3ccccc3)C2OC(=O)c2ccccc2)C(OC(C)=O)C(OC(C)=O)C1OC(C)=O (stereo not drawn) | > 100 | > 100 | – |
| CCOC(=O)CCC1(C(=O)OC)CCCC1=O (stereo not drawn) | > 1020 | > 1020 | – |
| COc1ccc(CCNc2ccc(NCCc3ccc(OC)c(OC)c3)c3c2C(=O)c2ccccc2C3=O)cc1OC | – | – | inactive |
| Cc1nn2c(nc1=O)sc1ccc3ccccc3c12 | > 83.2 | > 83.2 | – |
| COC(=O)C1CC(F)(F)[C@H]1n1cnc2c(N)ncnc21 (stereo partly drawn) | > 240 | > 240 | – |
| O=C(Nc1ccccc1[N+](=O)[O-])/C(=N/Nc1cccc(Cl)c1)c1c(O)c2ccccc2oc1=O | > 53.7 | > 53.7 | – |
| CC(C)(C)OC(=O)[C@@H]1CCC(=S)N1Cc1ccccc1 | > 200 | 135 | – |
| O=C(Cc1nccc2c1[nH]c1ccccc12)OC1C#CCSCC#C/C=C\1 (stereo not drawn) | > 200 | 28.2 | – |
| COc1ccc(COCC[C@H](C)OC2OC(CO[Si](C)(C)C(C)(C)C)C(O)C(O)C2O)cc1 (stereo partly drawn) | > 200 | 16.2 | – |
| O=c1c2ccccc2nc2ccc3c(Cl)[nH][nH]c3c12 | – | – | inactive |
| COC(=N)CCNC(=O)C(O)C(O)C(=O)NCCC(=N)OC (stereo not drawn) | > 646 | > 646 | – |
| CS/C(=C\c1ccc(C(=O)c2ccc(C)cc2)n1C)S(C)=O (stereo not drawn) | > 200 | 12.3 | – |
| C=CC12CCC(CC1)n1c(=O)n(C)c(=O)n12 | > 200 | > 200 | – |
| N#CC(C#N)=C1CCCS(=O)(=O)c2ccccc21 | > 200 | > 200 | – |

| Compound | EC50 [µM] | IC50 [µM] | outcome |
| --- | --- | --- | --- |
| COC(=O)C1=C2CCC(=O)[C@@]2(C)CC(C)=C(C)C1 | – | – | inactive |
| COCn1c2ccc(OC(C)=O)cc2c2c(=O)oc(C)nc21 | > 200 | 170 | – |
| O=S(Cc1ccccn1)c1nc2ccccc2nc1-c1ccccc1 (stereo not drawn) | > 28.8 | > 28.8 | – |
| CCCCCOCC(O)CO (stereo not drawn) | – | – | inactive |
| O=S(=O)(O)c1cccc2c1CN1CCCCC1C2 (stereo not drawn) | > 200 | > 200 | – |
| C=CCSC[C@H](NC(=O)COc1ccccc1)C(=O)NC(C(=O)OCc1ccc([N+](=O)[O-])cc1)=C(C)C | > 25.7 | > 25.7 | – |
| O=C(O)c1ccc2c3c(ncnc13)-c1ccccc1C2=O | > 200 | 14.8 | – |
| N#CC(C(=N/O)/C(=N/O)C(C#N)c1ccc(Cl)cc1)c1ccc(Cl)cc1 (stereo not drawn) | > 468 | 178 | – |
| S=C(NNc1nc2ccccc2n2cccc12)Nc1ccc(Br)cn1 | > 0.2 | 0.0617 | – |
| NC1=NC(N)=N1 | > 2950 | > 2950 | – |
| CCC1(Br)OC1=O (stereo not drawn) | > 200 | 107 | – |
| CCCCCCCCCCCCC1C(=O)NCCNCCCNCCNC1=O | > 200 | 10 | – |
| Cc1ccc(-n2nncc2[Si](C)(C)C)s1 | > 200 | 148 | – |
| CSc1c(C(=O)Nc2ccccc2)c(N)nn1-c1ccccc1 | > 200 | 70.8 | – |
| O=C(c1cccs1)N(C(=S)OCc1ccccn1)c1ccccc1 | > 200 | 79.4 | – |
| Brc1cccc[n+]1Cc1ccccc1C[n+]1ccccc1Br | > 200 | > 200 | – |
| COc1ccc(-c2onc(-c3c(C)cc(C)cc3C)c2C2=NCCCN2)cc1 | > 50.1 | > 50.1 | – |
| C=CCCCC12CCCc3cccc(c31)NC2=O (stereo not drawn) | > 151 | 63.1 | – |
| CCCCCCCCOCC(COC(=O)CCCCCCC)OC(=O)CCCCCCC (stereo not drawn) | > 151 | 37.2 | – |
| Brc1ccc(-c2ccc(-c3ccc(Br)s3)s2)s1 | > 200 | > 200 | – |
